Read-outs that look alike come from different tables or passages of the source.
Tests used:
TRZVX = experiment: Greenhouse herbicidal effectiveness, TRZVX; format: in vivo, wheat; details: Table 19A, 16 days after treatment
Text: (§1) The following greenhouse testing procedure was used for evaluating compositions of the Examples to determine herbicidal effectiveness, except where otherwise indicated.
(§2) Seeds of the plant species indicated were planted in 88 mm square pots in a soil mix which was previously sterilized and prefertilized with a 14-14-14 NPK slow release fertilizer at a rate of 3.6 kg/m3. The pots were placed in a greenhouse with sub-irrigation. About one week after emergence, seedlings were thinned as needed, including removal of any unhealthy or abnormal plants, to create a uniform series of test pots.
(§3) The plants were maintained for the duration of the test in the greenhouse where they received a minimum of 14 hours of light per day. […] Exposure temperatures were not precisely controlled but averaged about 29° C. during the day and about 21° C. during the night. Plants were sub-irrigated throughout the test to ensure adequate soil moisture levels.
(§4) Pots were assigned to different treatments in a fully randomized experimental design with 6 replications. A set of pots was left untreated as a reference against which affects of the treatments could later be evaluated.
(§5) Application of glyphosate compositions was made by spraying with a track sprayer fitted with a 9501E nozzle calibrated to deliver a spray volume of 93 liters per hectare (l/ha) at a pressure of 165 kilopascals (kPa). After treatment, pots were returned to the greenhouse until ready for evaluation.
(§6) Treatments were made using dilute aqueous compositions. These could be prepared as spray compositions directly from their ingredients, or by dilution with water of preformulated concentrate compositions.
(§7) For evaluation of herbicidal effectiveness, all plants in the test were examined by a single practiced technician, who recorded percent control, a visual measurement of the effectiveness of each treatment by comparison with untreated plants. […] The reported % control values represent the average for all replicates of each treatment.

ECHCF = experiment: Greenhouse herbicidal effectiveness, ECHCF; format: in vivo, Japanese millet, barnyardgrass; details: Table 19A, 16 days after treatment
Text: as §1, §2, §3, §4, §5, §6, §7

ABUTH = experiment: Greenhouse herbicidal effectiveness, ABUTH; format: in vivo, velvetleaf; details: for efficacy ABUTH: Table 19A, 16 days after treatment; for inhibition at 2 g/ha / inhibition at 3 g/ha / inhibition at 4 g/ha / inhibition at 5 g/ha: Abutilon theophrasti
Text: as §1, §2, §3, §4, §5, §6, §7

plants = experiment: Whole plant response to oxalic acid by itself; format: in vivo; details: enzyme studies and whole plant response
Text: Glyphosate inhibits the shikimic acid pathway which leads to the biosynthesis of aromatic compounds including amino acids, plant hormones and vitamins. Specifically, glyphosate curbs the conversion of phosphoenolpyruvic acid (PEP) and 3-phosphoshikimic acid to 5-enolpyruvyl-3-phosphoshikimic acid by inhibiting the EPSPS enzyme. It is believed that oxalic acid and other dicarboxylic acids enhance the binding efficiency of glyphosate to the S3P-EPSPS complex, resulting in a whole plant response to the oxalate at a given glyphosate concentration. […] This would lower the Kd of the S3P-EPSPS-glyphosate ternary complex. Data reported in the literature from x-ray crystallography have clearly identified the 427 amino acid side chains. Each of the six α-helices in the top domain and four of the six α-helices in the lower domain are capped with basic amino acid residues. Electrostatic interaction of a dicarboxylic acid or other compound of the proper stearic requirement with these basic amino acid residues on the surface of the two domains of the enzyme are believed to produce a stapling action. Such stapling action is possible only on at least a partially closed conformation of the ternary complex of S3P-EPSPS-glyphosate. […] Any compound with stapling action to close the ternary complex tighter, thereby enhancing the inhibition of the enzyme is a suitable enhancer component of the invention.

EPSPS enzyme = biological target: T1, EPSPS enzyme (Escherichia coli, UniProt P0A6D3); experiment: Enzyme studies of EPSPS inhibition; format: biochemical; details: oxalic acid without glyphosate
T1 sequence (P0A6D3 1-427): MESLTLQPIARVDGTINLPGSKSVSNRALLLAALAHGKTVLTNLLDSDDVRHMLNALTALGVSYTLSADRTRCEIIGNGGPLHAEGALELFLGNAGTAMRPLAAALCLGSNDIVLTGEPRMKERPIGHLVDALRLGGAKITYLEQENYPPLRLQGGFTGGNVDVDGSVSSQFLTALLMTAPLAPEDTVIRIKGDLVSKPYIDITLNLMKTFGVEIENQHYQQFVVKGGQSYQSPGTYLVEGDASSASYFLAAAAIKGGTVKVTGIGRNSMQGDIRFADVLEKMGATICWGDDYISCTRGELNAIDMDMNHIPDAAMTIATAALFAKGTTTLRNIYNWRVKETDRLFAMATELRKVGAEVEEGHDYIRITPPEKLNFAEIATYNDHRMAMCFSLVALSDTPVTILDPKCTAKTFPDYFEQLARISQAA
Text: It has been discovered that oxalic acid and derivatives thereof enhance the pesticidal activity of a pesticide by acting as either an allosteric or cooperative effecter of the inhibition of the target enzyme 5-enolpyruvylishikimate-3-phosphate synthase (hereinafter referred to as EPSP synthase or EPSPS). For example, oxalic acid increases the inhibition of EPSPS enzyme by glyphosate to enhance the physiological response of plants at the enzyme level. […] In other words, the oxalic acid is absorbed and systemically transported throughout the plant.
Glyphosate inhibits the shikimic acid pathway which leads to the biosynthesis of aromatic compounds including amino acids, plant hormones and vitamins. Specifically, glyphosate curbs the conversion of phosphoenolpyruvic acid (PEP) and 3-phosphoshikimic acid to 5-enolpyruvyl-3-phosphoshikimic acid by inhibiting the EPSPS enzyme. It is believed that oxalic acid and other dicarboxylic acids enhance the binding efficiency of glyphosate to the S3P-EPSPS complex, resulting in a whole plant response to the oxalate at a given glyphosate concentration. […] This would lower the Kd of the S3P-EPSPS-glyphosate ternary complex. Data reported in the literature from x-ray crystallography have clearly identified the 427 amino acid side chains. […]

[1] = 30 g a.e./ha, tank mix OTH1 1 % v/v
[2] = 70 g a.e./ha, tank mix OTH1 1 % v/v
[3] = 100 g a.e./ha, tank mix OTH1 1 % v/v
[4] = 200 g a.e./ha, tank mix OTH1 1 % v/v

Row | Structure (SMILES) | efficacy TRZVX (TRZVX; 30 g a.e./ha, no OTH1) | efficacy TRZVX (TRZVX; [1]) | efficacy TRZVX (TRZVX; 70 g a.e./ha, no OTH1) | efficacy TRZVX (TRZVX; [2]) | efficacy TRZVX (TRZVX; 100 g a.e./ha, no OTH1) | efficacy TRZVX (TRZVX; [3]) | efficacy TRZVX (TRZVX; 200 g a.e./ha, no OTH1) | efficacy TRZVX (TRZVX; [4]) | efficacy ECHCF (ECHCF; 30 g a.e./ha, no OTH1) | efficacy ECHCF (ECHCF; [1]) | efficacy ECHCF (ECHCF; 70 g a.e./ha, no OTH1) | efficacy ECHCF (ECHCF; [2]) | efficacy ECHCF (ECHCF; 100 g a.e./ha, no OTH1) | efficacy ECHCF (ECHCF; [3]) | efficacy ECHCF (ECHCF; 200 g a.e./ha, no OTH1) | efficacy ECHCF (ECHCF; [4]) | efficacy ABUTH (ABUTH; 30 g a.e./ha, no OTH1) | efficacy ABUTH (ABUTH; [1]) | efficacy ABUTH (ABUTH; 70 g a.e./ha, no OTH1) | efficacy ABUTH (ABUTH; [2]) | other results
1 | CCc1cnc(C2=NC(C)(C(C)C)C(=O)N2)c(C(=O)O)c1 (stereo not shown) [imazethapyr] | 14 | 25 | 41 | 33 | 52 | 50 | 73 | 67 | 68 | 66 | 72 | 71 | 75 | 74 | 87 | 80 | 73 | 72 | 80 | 81 | efficacy ABUTH (ABUTH; 100 g a.e./ha, no OTH1): 82; efficacy ABUTH (ABUTH; [3]): 85; efficacy ABUTH (ABUTH; 200 g a.e./ha, no OTH1): 85; efficacy ABUTH (ABUTH; [4]): 89
2 | C[C@@H](Oc1ccc(Oc2ccc(C(F)(F)F)cn2)cc1)C(=O)O [fluazifop-p] | 70 | 73 | 85 | 83 | 91 | 93 | 97 | 98 | 98 | 97 | 100 | 100 | 100 | 100 | 100 | 100 | 0, 0, 0, 0 | 0, 0, 0, 0 | 0, 0, 0, 0 | 0, 0, 0, 0 | efficacy ABUTH (ABUTH; 100 g a.e./ha, no OTH1): 0, 0, 0, 0; efficacy ABUTH (ABUTH; [3]): 0, 0, 0, 0; efficacy ABUTH (ABUTH; 200 g a.e./ha, no OTH1): 0, 0, 0, 0; efficacy ABUTH (ABUTH; [4]): 0, 0, 0, 0
3 | c1cc[n+]2c(c1)-c1cccc[n+]1CC2 [diquat] | 3 | 14 | 7 | 16 | 27 | 19 | 46 | 47 | 19 | 11 | 33 | 24 | 43 | 33 | 46 | 50 | 5 | 10 | 15 | 30 | efficacy ABUTH (ABUTH; 100 g a.e./ha, no OTH1): 20; efficacy ABUTH (ABUTH; [3]): 41; efficacy ABUTH (ABUTH; 200 g a.e./ha, no OTH1): 32; efficacy ABUTH (ABUTH; [4]): 57
4 | O=C(O)C(=O)O [oxalic acid, Oxalic Acid] | – | – | – | – | – | – | – | – | – | – | – | – | – | – | – | – | – | – | – | – | inhibition at 2 g/ha (ABUTH; 336 h, read-out: % inhibition ABUTH (14 DAT), oxalate/oxalic acid alone, 2 g a.e./ha, 14 DAT, Table 44A): 0%; inhibition at 3 g/ha (ABUTH; 336 h, read-out: % inhibition ABUTH (14 DAT), oxalate/oxalic acid alone, 3 g a.e./ha, 14 DAT, Table 44A): 0%; inhibition at 4 g/ha (ABUTH; 336 h, read-out: % inhibition ABUTH (14 DAT), oxalate/oxalic acid alone, 4 g a.e./ha, 14 DAT, Table 44A): 0%; inhibition at 5 g/ha (ABUTH; 336 h, read-out: % inhibition ABUTH (14 DAT), oxalate/oxalic acid alone, 5 g a.e./ha, 14 DAT, Table 44A): 0%; inhibition at 2 g/ha (ABUTH; 480 h, read-out: % inhibition ABUTH (20 DAT), oxalate/oxalic acid alone, 2 g a.e./ha, 20 DAT, Table 44A): 0%; inhibition at 3 g/ha (ABUTH; 480 h, read-out: % inhibition ABUTH (20 DAT), oxalate/oxalic acid alone, 3 g a.e./ha, 20 DAT, Table 44A): 0%; inhibition at 4 g/ha (ABUTH; 480 h, read-out: % inhibition ABUTH (20 DAT), oxalate/oxalic acid alone, 4 g a.e./ha, 20 DAT, Table 44A): 0%; inhibition at 5 g/ha (ABUTH; 480 h, read-out: % inhibition ABUTH (20 DAT), oxalate/oxalic acid alone, 5 g a.e./ha, 20 DAT, Table 44A): 0%; herbicidal property by itself (plants): does not have any herbicidal property; inhibitory effect on the EPSPS enzyme per se (EPSPS enzyme): do not have any inhibitory effect on the enzyme per se

Source: patent US7883715B2, “Pesticide compositions containing dicarboxylic acids” (Monsanto Technology LLC, priority 2002, dated 2011)
